# Measurements from ChEMBL document CHEMBL5543173, “Discovery of a New Anti-Inflammatory Agent from Anemoside B4 Derivatives and Its Therapeutic Effect on Colitis by Targeting Pyruvate Carboxylase” (J Med Chem, 2024).
# The source made the active and inactive calls. No cut-off for these calls is given here.
# Experiments:
# Mus musculus [1] = experiment: Anti-colitis activity in ICR mouse model assessed as […] DSS-induced colon length at 60 mg/kg, IG treated for 8 days consecutively in presence of DADA; assay type: functional, organism-based; settings: time 8.0 day
# [2] = Toxicity in ICR mouse assessed as change in body weight at 300 mg/kg, IG measured for 9 days; assay type: organism-based; settings: in vivo, po, 216 h, time 9 day
# Mus musculus [3] = experiment: Anti-colitis activity in ICR mouse model assessed as reversal of DSS-induced colon shortening administered intragastrically for 9 days consecutively; assay type: functional, organism-based; settings: route ig, time 9.0 day
# THP-1 [4] = experiment: Anti-inflammatory activity in human THP-1 cells assessed as decrease in LPS-induced TNF-alpha level at 10 uM pretreated for 1 hr followed by LPS treatment for 24 hrs in presence of DADA by ELISA; assay type: functional, cell-based; settings: time 25.0 hrs
# [5] = Toxicity in ICR mouse assessed as change in kidney index at 300 mg/kg, IG measured for 9 days; assay type: organism-based; settings: in vivo, po, 216 h, time 9 day
# THP-1 [6] = experiment: Anti-inflammatory activity in human THP-1 cells assessed as decrease in LPS-induced IL-1beta level at 1 to 10 uM pretreated for 1 hr followed by LPS/ATP treatment for 6 hrs by Western blot analysis; assay type: functional, cell-based; settings: dose 1-10 µM, time 7.0 hrs
# THP-1 [7] = experiment: Anti-inflammatory activity in human THP-1 cells assessed as decrease in LPS-induced phosphorylated I-kappaB-alpha level pretreated for 1 hr followed by LPS treatment for 6 hrs by Western blot analysis; assay type: functional, cell-based; settings: dose 1-10 µM, time 7.0 hrs
# [8] = Stability in mouse liver microsomes assessed as half life at 10 uM preincubated for 5 mins followed by NADPH addition measured for 10 to 480 mins by LC-MS/MS analysis; assay type: ADME, Microsome; settings: time 15-485 min
# [9] = Half life in Sprague-Dawley rat administered as hydroxypropyl-beta-cyclodextrin at 20 mg/kg, IG measured for 12 hrs by LC-MS/MS analysis; assay type: ADME, organism-based; settings: in vivo, po
# Mus musculus [10] = experiment: Anti-colitis activity in ICR mouse model assessed as decrease in DSS-induced IL-6 level at 60 mg/kg, IG treated for 8 days consecutively in presence of DADA; assay type: functional, organism-based; settings: time 8.0 day
# [11] = Toxicity in ICR mouse assessed as change in liver index at 300 mg/kg, IG measured for 9 days; assay type: organism-based; settings: in vivo, po, 216 h, time 9 day
# Mus musculus [12] = experiment: Anti-colitis activity in ICR mouse model assessed as decrease in DSS-induced IL-6 level administered intragastrically treated for 8 days consecutively; assay type: functional, organism-based; settings: dose 15-60 mg/kg, route ig, time 8.0 day
# Mus musculus [13] = experiment: Anti-colitis activity in ICR mouse model assessed as decrease in DSS-induced pyruvate carboxylase level at 60 mg/kg, IG treated for 8 days consecutively; assay type: functional, organism-based; settings: time 8.0 day
# Mus musculus [14] = experiment: Anti-colitis activity in ICR mouse model assessed as reversal of DSS-induced splenomegaly at 15 to 60 mg/kg, IG treated for 9 days consecutively; assay type: functional, organism-based; settings: dose 15-60 mg/kg, time 9.0 day
# [15] = AUC (0 to t) in colon of ICR mouse at 15 mg/kg, IG measured for 12 hrs by LC-MS/MS analysis; assay type: ADME, organism-based; settings: po
# [16] = Half life in ICR mouse at 15 mg/kg, IG measured for 12 hrs by LC-MS/MS analysis; assay type: ADME, organism-based; settings: ICR, in vivo, po
# [17] = Toxicity in ICR mouse assessed as change in spleen index at 300 mg/kg, IG measured for 9 days; assay type: organism-based; settings: in vivo, po, 216 h, time 9 day
# [18] = MRT (0 to t) in ICR mouse at 15 mg/kg, IG measured for 12 hrs by LC-MS/MS analysis; assay type: ADME, organism-based; settings: in vivo, po
# [19] = Tmax in Sprague-Dawley rat administered as hydroxypropyl-beta-cyclodextrin at 20 mg/kg, IG measured for 12 hrs by LC-MS/MS analysis; assay type: ADME, organism-based; settings: in vivo, po
# [20] = Volume of distribution in ICR mouse at 15 mg/kg, IG measured for 12 hrs by LC-MS/MS analysis; assay type: ADME, organism-based; settings: in vivo, po
# Mus musculus [21] = experiment: Anti-colitis activity in ICR mouse model assessed as decrease in DSS-induced inflammatory cell infiltration in colon tissue at 15 to 60 mg/kg, IG treated for 8 days consecutively by H and E staining based analysis; assay type: functional, organism-based; settings: dose 15-60 mg/kg, time 8.0 day
# Mus musculus [22] = experiment: Anti-colitis activity in ICR mouse model of DSS-induced colitis assessed as decrease in DAI score at 15 to 60 mg/kg, IG treated for 9 days consecutively; assay type: functional, organism-based; settings: dose 15-60 mg/kg, time 9.0 day
# THP-1 [23] = experiment: Anti-inflammatory activity in human THP-1 cells assessed as decrease in LPS-induced pro-IL-1beta level at 1 to 10 uM pretreated for 1 hr followed by LPS/ATP treatment for 6 hrs by Western blot analysis; assay type: functional, cell-based; settings: dose 1-10 µM, time 7.0 hrs
# THP-1 [24] = experiment: Anti-inflammatory activity in LPS-treated human THP-1 cells assessed as decrease in phosphorylated I-kappaB-alpha level at 10 uM pretreated for 1 hr followed by LPS treatment for 6 hrs by Western blot analysis; assay type: functional, cell-based; settings: time 7.0 hrs
# [25] = Cmax in Sprague-Dawley rat administered as hydroxypropyl-beta-cyclodextrin at 20 mg/kg, IG measured for 12 hrs by LC-MS/MS analysis; assay type: ADME, organism-based; settings: in vivo, po
# [26] = Tmax in colon of ICR mouse at 15 mg/kg, IG measured for 12 hrs by LC-MS/MS analysis; assay type: ADME, organism-based; settings: po
# Mus musculus [27] = experiment: Anti-colitis activity in ICR mouse model assessed as decrease in DSS-induced inflammatory cell infiltration in colon tissue at 60 mg/kg, IG treated for 8 days consecutively in presence of DADA by H and E staining based analysis; assay type: functional, organism-based; settings: time 8.0 day
# THP-1 [28] = experiment: Anti-inflammatory activity in human THP-1 cells assessed as decrease in LPS-induced P20 level at 1 to 10 uM pretreated for 1 hr followed by LPS/ATP treatment for 6 hrs by Western blot analysis; assay type: functional, cell-based; settings: dose 1-10 µM, time 7.0 hrs
# Mus musculus [29] = experiment: Anti-colitis activity in ICR mouse model assessed as decrease in DSS-induced epithelial cell injury in colon tissue at 60 mg/kg, IG treated for 8 days consecutively in presence of DADA by H and E staining based analysis; assay type: functional, organism-based; settings: time 8.0 day
# Mus musculus [30] = experiment: Anti-colitis activity in ICR mouse model assessed as increase in DSS-reduced pyruvate level at 60 mg/kg, IG treated for 8 days consecutively in presence of DADA; assay type: functional, organism-based; settings: time 8.0 day
structure (smiles),measurement,setting,value
C=C(C)[C@@H]1CC[C@]2(C(=O)NCCCCCC(=O)OC)CC[C@]3(C)[C@H](CC[C@@H]4[C@@]5(C)CC[C@H](O[C@@H]6OC[C@H](O)[C@H](O)[C@H]6O[C@@H]6O[C@@H](C)[C@H](O)[C@@H](O)[C@H]6O)[C@@](C)(CO)[C@@H]5CC[C@]43C)[C@@H]12,Activity,Mus musculus [1],inactive
same,Activity,[2],Non-Toxic
same,Activity,Mus musculus [3],Dose-Dependent Effect
same,Activity,THP-1 [4],inactive
same,Activity,[5],Non-Toxic
same,Activity,THP-1 [6],Active
same,Activity,THP-1 [7],Dose-Dependent Effect
same,t1/2,[8],6.46 min
same,t1/2,[9],1.38 h
same,Activity,Mus musculus [10],inactive
same,Activity,[11],Non-Toxic
same,Activity,Mus musculus [12],Dose-Dependent Effect
same,Activity,Mus musculus [13],Active
same,Activity,Mus musculus [14],Active
same,AUC(0-t) at 12 h,[15],3210 ng·h/mL
same,half-life,[16],2.46 h
same,Activity,[17],Non-Toxic
same,MRT last at 12 h,[18],3.1 h
same,Tmax,[19],0.5 h
same,Vd,[20],2867.15 L/kg
same,Activity,Mus musculus [21],Active
same,Activity,Mus musculus [22],Active
same,Activity,THP-1 [23],Active
same,Activity,THP-1 [24],Active
same,Cmax,[25],57.5 ng/mL
same,Tmax,[26],1.58 h
same,Activity,Mus musculus [27],inactive
same,Activity,THP-1 [28],Active
same,Activity,Mus musculus [29],inactive
same,Activity,Mus musculus [30],inactive
